Test results reported in patent US7560443B2, “Mixtures of fructose, sucrose and lactose as a low-calorie bulk sweetener with reduced glycemic index” (Vivalac, Inc. A Maryland Corp., priority 2002, dated 2009).
Where two headings read alike, the source gives them in different places.

Assays:
plasma glucose [1] = details: untreated diabetics, Gannon et al; cited from earlier work
rats [2] = details: cited from earlier work
rats [3] = details: cited from earlier work; for body fat lowering vs controls: pair-fed rats
blood glucose = details: diabetic volunteers after normal insulin or oral agents, vs glucose (GI=100); cited from earlier work
plasma glucose [4] = details: glucose = 100, cited from earlier work
human lactase = human lactase (Homo sapiens, UniProt P09848); details: in vitro; cited from earlier work
plasma glucose [5] = experiment: OTT, aqueous solutions (25 g in 100 g water), type 2 diabetic subject (DM2); type: in vivo, human
Method: Test articles were aqueous solutions (in 200 g water) of 50 g of total carbohydrates, which were prepared early in the morning before the test. All of the same protocol criteria were applied for the test, as described in Example 1 above, except that times for blood samples were 0, 30, 45, 60, 90, 120, and 180 minutes. The test subjects were Subject #1, described above, and Subject #2, a healthy person (BMI=27.7 kg/m^2). See FIGS. 3 and 2, respectively, for results of their OTT's.
Calculation of estimated caloric value (ECV) demands some explanation here, as the calculation requires acceptance of some reasonable assumptions: • GI values for lactose monohydrate, fructose, sucrose and oat starch are 46, 23, 64, and 100, respectively. • Caloric values for lactose monohydrate, fructose, sucrose and oat starch are 3.8, 3.7, 3.9, and 3.7 kcal/g, respectively. • The order for complete active absorption of sugar mixtures from the small intestine to the bloodstream is fructose>starch (as maltose and α-dextrins)>sucrose>lactose. • Passive absorption of unhydrolyzed disaccharides is assumed to be zero for these calculations. • Disaccharides not actively absorbed pass to the colon, where they are fully degraded by microflora. • 78% of the disaccharides form short chain fatty acids (SCFA's), which are fully absorbed and used by the body with 50%×0.85=42.5% energy efficiency vs glucose (Livesey, Int J Food Sci Nutr, 44, 221-241, 1993). • 22% of the disaccharides are converted to biomass, which is calorically unavailable to the host (Weber et al, J Lab Clin Med, 110, 259-263, 1987). • NB—Starch (not part of the sweetener) which passes to the colon and is degraded microbially subtracts energy value from the sweetener, a component of which (lactose) caused it to pass to the colon.
The type 2 diabetic subject (DM2) was a person (BMI=32.8 kg/m^2), who was trying to control their diabetes without insulin or oral medications. Their daily drug regimen included Premarin®, Prempro®, Xenical®, and Lipitor®, all taken after OTT was completed each day. […]

plasma glucose [6] = experiment: OTT, aqueous sugar solutions (50 g in 200 g water), Subject #1; type: in vivo, human; details: Subject #1, N=3
Method: The test subject (Subject #1) was a person in good health, with a body mass index (BMI) equal to 28.6 kg/m^2. The subject was required to exercise moderately at least 30 minutes each day before testing, sleep at least 7 hours the previous night, and fast for no less than 12 hours prior to oral tolerance testing (OTT) early the next morning. Water was restricted 1.5 hours prior to testing, and only small sips of water were allowed infrequently during OTT. The test article, described below, was ingested as quickly as possible after the time 0 blood sample was obtained. Subsequent blood samples were taken at 30, 60, 90, 120, 150, and 180 minutes, and plasma glucose measurements were recorded in units of mg/dL immediately each time using a hand-held glucometer (At•Last model, Amira Medical, Scotts Valley, Calif. 95066). The subject abstained from food and remained sedentary during the 3-hour test. Clinical observations were noted and recorded continuously.
Test articles were aqueous solutions (in 200 g water) of 50 g of total carbohydrates, which were prepared early in the morning before the test. All of the same protocol criteria were applied for the test, as described in Example 1 above, except that times for blood samples were 0, 30, 45, 60, 90, 120, and 180 minutes. The test subjects were Subject #1, described above, and Subject #2, a healthy person (BMI=27.7 kg/m^2). […]

human sucrase = human sucrase (Homo sapiens, UniProt P14410); details: in vitro; cited from earlier work
human small intestine = details: cited from earlier work
maltase = details: in vitro; cited from earlier work
rabbit sucrase = rabbit sucrase (Oryctolagus cuniculus, UniProt P07768); details: in vitro; cited from earlier work
rabbit maltase = details: in vitro; cited from earlier work
[7] = pair-feeding, lactose 30% of diet (Février 1969)
[8] = weanling male rats, 12% lactose, six weeks (Ali and Evans 1971)

human lactase, sequence (P09848 869-1927): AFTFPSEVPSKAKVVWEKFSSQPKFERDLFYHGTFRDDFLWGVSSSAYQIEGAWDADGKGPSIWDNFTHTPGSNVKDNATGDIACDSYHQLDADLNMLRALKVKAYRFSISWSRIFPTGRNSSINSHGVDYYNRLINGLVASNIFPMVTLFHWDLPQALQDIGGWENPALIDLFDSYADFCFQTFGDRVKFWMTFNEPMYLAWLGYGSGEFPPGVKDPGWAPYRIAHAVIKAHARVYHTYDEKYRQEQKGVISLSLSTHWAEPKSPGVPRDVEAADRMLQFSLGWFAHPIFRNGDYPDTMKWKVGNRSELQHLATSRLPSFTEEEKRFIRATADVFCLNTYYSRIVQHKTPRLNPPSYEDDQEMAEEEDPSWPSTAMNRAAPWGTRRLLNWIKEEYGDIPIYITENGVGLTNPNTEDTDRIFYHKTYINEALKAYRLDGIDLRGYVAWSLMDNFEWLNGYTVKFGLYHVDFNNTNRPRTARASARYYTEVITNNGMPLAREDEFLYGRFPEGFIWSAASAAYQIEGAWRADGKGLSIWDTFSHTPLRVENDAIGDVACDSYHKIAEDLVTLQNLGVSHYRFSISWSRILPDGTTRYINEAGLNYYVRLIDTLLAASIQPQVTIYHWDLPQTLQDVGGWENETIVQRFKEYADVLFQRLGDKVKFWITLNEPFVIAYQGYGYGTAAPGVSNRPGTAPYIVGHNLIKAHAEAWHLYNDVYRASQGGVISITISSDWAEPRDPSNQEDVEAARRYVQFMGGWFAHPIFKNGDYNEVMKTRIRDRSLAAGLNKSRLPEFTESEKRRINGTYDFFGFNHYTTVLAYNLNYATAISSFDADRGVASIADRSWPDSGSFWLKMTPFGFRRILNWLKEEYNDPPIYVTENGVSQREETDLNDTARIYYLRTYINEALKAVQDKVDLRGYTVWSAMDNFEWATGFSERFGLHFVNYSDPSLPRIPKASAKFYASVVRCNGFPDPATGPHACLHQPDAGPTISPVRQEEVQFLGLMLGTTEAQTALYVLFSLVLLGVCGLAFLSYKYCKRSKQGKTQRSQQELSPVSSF
human sucrase, sequence (P14410 whole entry): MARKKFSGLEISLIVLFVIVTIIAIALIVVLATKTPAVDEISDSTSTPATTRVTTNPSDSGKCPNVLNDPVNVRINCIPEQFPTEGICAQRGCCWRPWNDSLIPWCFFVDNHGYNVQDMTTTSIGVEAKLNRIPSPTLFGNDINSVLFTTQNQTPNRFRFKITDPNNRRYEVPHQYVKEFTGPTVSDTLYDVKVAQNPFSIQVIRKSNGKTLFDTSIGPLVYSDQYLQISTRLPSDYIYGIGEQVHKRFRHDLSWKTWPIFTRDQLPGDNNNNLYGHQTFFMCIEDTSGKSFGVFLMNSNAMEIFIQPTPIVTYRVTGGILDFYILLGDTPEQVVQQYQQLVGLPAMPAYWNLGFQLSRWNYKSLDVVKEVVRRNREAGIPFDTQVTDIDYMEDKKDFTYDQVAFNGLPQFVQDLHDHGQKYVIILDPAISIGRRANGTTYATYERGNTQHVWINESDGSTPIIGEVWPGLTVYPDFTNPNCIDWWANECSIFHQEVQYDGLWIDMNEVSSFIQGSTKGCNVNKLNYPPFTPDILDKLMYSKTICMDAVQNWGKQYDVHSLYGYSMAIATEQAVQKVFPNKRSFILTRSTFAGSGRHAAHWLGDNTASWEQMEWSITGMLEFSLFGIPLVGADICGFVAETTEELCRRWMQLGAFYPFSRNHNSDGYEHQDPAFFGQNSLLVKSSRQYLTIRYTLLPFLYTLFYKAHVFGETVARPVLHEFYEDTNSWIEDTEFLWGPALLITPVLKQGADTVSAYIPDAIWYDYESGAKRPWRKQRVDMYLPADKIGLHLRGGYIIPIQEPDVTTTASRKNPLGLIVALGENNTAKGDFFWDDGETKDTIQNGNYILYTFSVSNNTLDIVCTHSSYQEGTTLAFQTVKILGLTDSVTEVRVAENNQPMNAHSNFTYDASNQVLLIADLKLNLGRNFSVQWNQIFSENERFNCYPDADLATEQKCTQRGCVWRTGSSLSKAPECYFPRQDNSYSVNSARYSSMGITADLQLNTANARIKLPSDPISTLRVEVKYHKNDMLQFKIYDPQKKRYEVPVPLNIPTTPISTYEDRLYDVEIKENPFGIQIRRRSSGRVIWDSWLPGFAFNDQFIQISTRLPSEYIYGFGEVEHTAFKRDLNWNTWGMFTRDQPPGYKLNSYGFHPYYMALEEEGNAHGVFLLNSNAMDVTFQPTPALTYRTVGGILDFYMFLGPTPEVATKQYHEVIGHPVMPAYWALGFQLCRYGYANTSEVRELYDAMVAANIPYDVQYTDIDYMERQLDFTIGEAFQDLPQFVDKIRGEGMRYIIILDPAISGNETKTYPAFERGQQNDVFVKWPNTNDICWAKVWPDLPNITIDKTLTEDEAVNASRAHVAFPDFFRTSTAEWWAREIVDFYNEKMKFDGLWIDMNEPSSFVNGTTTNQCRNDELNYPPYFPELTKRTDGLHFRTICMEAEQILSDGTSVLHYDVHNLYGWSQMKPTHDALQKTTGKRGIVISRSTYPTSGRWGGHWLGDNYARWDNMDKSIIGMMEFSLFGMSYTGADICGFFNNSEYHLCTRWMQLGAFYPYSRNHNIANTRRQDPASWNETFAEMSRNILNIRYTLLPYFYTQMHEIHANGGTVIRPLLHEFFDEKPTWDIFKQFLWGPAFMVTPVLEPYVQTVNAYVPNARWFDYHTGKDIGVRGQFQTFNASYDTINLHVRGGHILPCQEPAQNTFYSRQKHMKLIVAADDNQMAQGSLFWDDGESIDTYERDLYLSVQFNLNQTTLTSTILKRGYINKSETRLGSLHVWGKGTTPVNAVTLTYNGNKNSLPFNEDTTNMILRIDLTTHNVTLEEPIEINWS
rabbit sucrase, sequence (P07768 whole entry): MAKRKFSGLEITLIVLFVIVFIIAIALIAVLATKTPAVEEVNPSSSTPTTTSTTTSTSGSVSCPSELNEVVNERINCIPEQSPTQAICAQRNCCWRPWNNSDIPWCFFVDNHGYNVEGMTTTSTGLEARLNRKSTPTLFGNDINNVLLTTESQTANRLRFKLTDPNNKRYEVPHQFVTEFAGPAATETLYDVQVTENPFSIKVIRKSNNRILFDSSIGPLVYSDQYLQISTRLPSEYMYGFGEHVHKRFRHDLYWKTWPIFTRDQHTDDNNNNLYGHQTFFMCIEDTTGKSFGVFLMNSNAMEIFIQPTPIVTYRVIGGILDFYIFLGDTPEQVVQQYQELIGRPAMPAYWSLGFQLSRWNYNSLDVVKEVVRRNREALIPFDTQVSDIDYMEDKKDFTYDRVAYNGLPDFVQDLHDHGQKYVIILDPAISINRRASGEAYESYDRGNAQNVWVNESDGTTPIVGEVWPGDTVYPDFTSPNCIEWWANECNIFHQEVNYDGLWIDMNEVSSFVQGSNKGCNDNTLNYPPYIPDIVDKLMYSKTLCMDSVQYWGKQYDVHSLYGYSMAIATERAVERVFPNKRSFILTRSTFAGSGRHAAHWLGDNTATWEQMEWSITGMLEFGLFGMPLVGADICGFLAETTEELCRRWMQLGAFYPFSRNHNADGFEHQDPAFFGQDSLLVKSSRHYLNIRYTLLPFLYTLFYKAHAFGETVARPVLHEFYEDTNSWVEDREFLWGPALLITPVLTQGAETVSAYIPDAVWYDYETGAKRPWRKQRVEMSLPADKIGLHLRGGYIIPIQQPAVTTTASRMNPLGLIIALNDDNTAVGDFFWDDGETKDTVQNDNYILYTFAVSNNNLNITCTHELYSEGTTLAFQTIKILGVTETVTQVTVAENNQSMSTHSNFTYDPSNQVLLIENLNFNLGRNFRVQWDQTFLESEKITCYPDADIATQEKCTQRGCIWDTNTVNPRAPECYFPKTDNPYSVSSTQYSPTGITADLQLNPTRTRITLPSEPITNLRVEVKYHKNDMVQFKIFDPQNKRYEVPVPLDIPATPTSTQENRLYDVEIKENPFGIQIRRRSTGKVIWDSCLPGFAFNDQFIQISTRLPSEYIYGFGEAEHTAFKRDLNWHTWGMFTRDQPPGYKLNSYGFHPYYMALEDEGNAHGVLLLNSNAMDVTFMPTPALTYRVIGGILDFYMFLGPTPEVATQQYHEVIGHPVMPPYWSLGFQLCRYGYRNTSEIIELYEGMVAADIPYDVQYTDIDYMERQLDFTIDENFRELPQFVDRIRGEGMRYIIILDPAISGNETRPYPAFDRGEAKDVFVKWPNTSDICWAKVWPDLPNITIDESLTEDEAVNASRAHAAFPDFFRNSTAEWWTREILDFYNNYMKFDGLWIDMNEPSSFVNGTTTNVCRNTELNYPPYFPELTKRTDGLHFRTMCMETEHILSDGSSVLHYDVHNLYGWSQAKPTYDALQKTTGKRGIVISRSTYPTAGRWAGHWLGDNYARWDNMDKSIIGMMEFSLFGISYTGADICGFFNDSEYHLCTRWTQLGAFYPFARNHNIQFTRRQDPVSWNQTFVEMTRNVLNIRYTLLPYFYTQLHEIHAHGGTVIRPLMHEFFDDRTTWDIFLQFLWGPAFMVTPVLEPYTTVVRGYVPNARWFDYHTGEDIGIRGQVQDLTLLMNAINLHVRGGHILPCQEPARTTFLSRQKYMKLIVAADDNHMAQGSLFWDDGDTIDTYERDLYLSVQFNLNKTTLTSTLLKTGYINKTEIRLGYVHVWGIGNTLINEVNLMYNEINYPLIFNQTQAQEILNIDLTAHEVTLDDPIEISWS

OC[C@H]1O[C@@H](O[C@H]2[C@H](O)[C@@H](O)C(O)O[C@@H]2CO)[C@H](O)[C@@H](O)[C@H]1O (some centres unmarked) [lactose]
GI values (plasma glucose [1]): 32
relative availability compared to glucose (rats [2]; bioassay based on plasma ketones): 0.59
relative availability compared to glucose (rats [2]; bioassay based on weight gain): 0.57
metabolizable energy value (rats [2]): 2.1 kcal/g
reduction of fat content (rats [3]; ad libitum feeding, lactose 30% of diet (Février 1969)): 20%
reduction of growth rate (rats [3]; ad libitum feeding, lactose 30% of diet vs starch control (Février 1969)): 37%
reduction of fat content (rats [3]; equalized-growth-feeding, lactose 30% of diet (Février 1969)): 12%
body fat lowering vs controls (rats [3]; lactose 30% of diet (Whittier et al 1935)): 38%
body fat lowering vs controls (rats [3]; lactose 50% of diet (Baker et al 1967)): 48%
body fat lowering vs controls (rats [3]; lactose 52% of diet (Tomarelli et al 1960)): 40%
reduction of fat content (rats [3]; [7]): 32%
reduction of growth rate (rats [3]; [7]): 23%
body fat reduction (rats [3]; [8]): 30%
body moisture increase (rats [3]; [8]): 11%
glycemic index (GI) (blood glucose): 48
glycemic index (GI) (plasma glucose [4]): 46

OC[C@H]1O[C@@](CO)(O[C@H]2O[C@H](CO)[C@@H](O)[C@H](O)[C@H]2O)[C@@H](O)[C@@H]1O [sucrose]
GI values (plasma glucose [1]): 43
inhibition of lactose hydrolysis by human lactase (human lactase): no inhibiting effect
glycemic index (GI) (blood glucose): 63
plasma glucose level relative to 200 mg/dL (plasma glucose [5]): broke above 200 mg/dL
time of plasma glucose peak (plasma glucose [5]): 45 min
AUC (plasma glucose [5]; 25 g in 100 g water, N=2): 6184 mg·min/dL
AUC (plasma glucose [6]): 2935 mg·min/dL
glycemic index (GI) (plasma glucose [4]): 64
glycemic index (GI) (plasma glucose [4]; listed as SU): 64

O=C[C@H](O)[C@@H](O)[C@@H](O)[C@H](O)CO [galactose]
inhibition of sucrose hydrolysis by human sucrase (human sucrase): no inhibition
absorption rate relative to fructose (human small intestine): ~1.2 times as fast as fructose
inhibition of lactose hydrolysis by human lactase (human lactase): competitively inhibit
inhibition of maltose hydrolysis by maltase (maltase): no inhibiting effect
inhibition of rabbit sucrase (rabbit sucrase): no inhibition
inhibition of rabbit maltase (rabbit maltase): no inhibition

OC[C@H]1O[C@H](O[C@H]2[C@H](O)[C@@H](O)[C@H](O)O[C@@H]2CO)[C@H](O)[C@@H](O)[C@@H]1O [maltose]
inhibition of lactose hydrolysis by human lactase (human lactase): no inhibiting effect

O=C(CO)[C@@H](O)[C@H](O)[C@H](O)CO [fructose]
inhibition of sucrose hydrolysis by human sucrase (human sucrase): inhibit
GI values (plasma glucose [1]): 6
inhibition of lactose hydrolysis by human lactase (human lactase): competitively inhibit
inhibition of maltose hydrolysis by maltase (maltase): no inhibiting effect
glycemic index (GI) (blood glucose): 24
glycemic index (GI) (plasma glucose [4]): 23
